{"source": "patent US7943639B2", "about": "“Compounds” (Proximagen Limited, priority 2002, dated 2011)", "key": {"human 5-HT6 receptor": {"molecular_target": "T1, human 5-HT6 receptor (Homo sapiens, UniProt P50406)", "T1 construct": "expressed in transfected cells; host or cells: HEK-293 cells under G-418 selection; membranes were prepared from them", "T1 sequence (P50406 whole entry)": "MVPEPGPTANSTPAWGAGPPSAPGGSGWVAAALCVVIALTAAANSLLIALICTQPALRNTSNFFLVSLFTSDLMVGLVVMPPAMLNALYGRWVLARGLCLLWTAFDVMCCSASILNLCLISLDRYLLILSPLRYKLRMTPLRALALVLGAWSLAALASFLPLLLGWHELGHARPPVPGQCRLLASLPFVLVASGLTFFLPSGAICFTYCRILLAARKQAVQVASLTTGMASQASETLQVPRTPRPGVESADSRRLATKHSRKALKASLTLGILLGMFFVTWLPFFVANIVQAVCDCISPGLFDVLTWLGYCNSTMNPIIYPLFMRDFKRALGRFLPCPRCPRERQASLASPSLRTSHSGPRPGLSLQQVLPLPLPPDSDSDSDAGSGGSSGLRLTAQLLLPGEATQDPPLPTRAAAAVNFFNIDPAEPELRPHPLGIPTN", "assay": "5-HT6 binding assay ([3H]-LSD, SPA, membranes of transfected HEK293 cells)"}, "Ob/ob mice": {"tested_on": "Ob/ob mice", "assay": "In vivo assay of reduction of food intake", "design": "species or system mouse", "details": "infusion 50 mg/kg/d, measured at steady state", "experimental": "(c) In Vivo Assay of Reduction of Food Intake\nObese (ob/ob) mouse is selected as the primary animal model for screening as this mutant mouse consumes high amounts of food resulting in a high signal to noise ratio. To further substantiate and compare efficacy data, the effect of the compounds on food consumption is also studied in wild type (C57BL/6J) mice. The amount of food consumed during 15 hours of infusion of compounds is recorded.\nMale mice (obese C57BL/6JBom-Lep^ob and lean wild-type C57B1/6JBom; Bomholtsgaard, Denmark) 8-9 weeks with an average body weight of 50 g (obese) and 25 g (lean) are used in all the studies. The animals are housed singly in cages at 23±1° C., 40-60% humidity and have free access to water and standard laboratory chow. The 12/12-h light/dark cycle is set to lights off at 5 p.m. The animals are conditioned for at least one week before start of study.\nThe test compounds are dissolved in solvents suitable for each specific compound such as cyclodextrin, cyclodextrin/methane sulfonic acid, polyethylene glycol/methane sulfonic acid, saline. Fresh solutions are made for each study. Doses of 30, 50 and 100 mg kg^−1day^−1 are used. The purity of the test compounds is of analytical grade.\nThe animals are weighed at the start of the study and randomized based on body weight. Alzet osmotic minipumps (Model 2001D; infusion rate 8 μl/h) are used and loaded essentially as recommended by the Alzet technical information manual (Alza Scientific Products, 1997; Theeuwes, F. and Yam, S. I. Ann. Biomed. Eng. 4(4). 343-353, 1976). Continuous subcutaneous infusion with 24 hours duration is used. […]\nThe weight of the food pellets are measured at 5 p.m. and at 8 p.m. for two days before (baseline) and one day after the implantation of the osmotic minipumps. […]\nFood consumption for 15 hours is measured for the three consecutive days and the percentage of basal level values is derived for each animal from the day before and after treatment. The values are expressed as mean±SD and ±SEM from eight animals per dose group. […]"}, "[1]": {"assay": "Plasma drug concentration at steady state in the food intake study", "type": "in vivo", "details": "mouse, subcutaneous, 50 mg/kg/day, Ob/ob mice, single administration 50 mg/kg/d, read-out: Css, u", "experimental": "The animals are weighed at the start of the study and randomized based on body weight. Alzet osmotic minipumps (Model 2001D; infusion rate 8 μl/h) are used and loaded essentially as recommended by the Alzet technical information manual (Alza Scientific Products, 1997; Theeuwes, F. and Yam, S. I. Ann. Biomed. Eng. 4(4). 343-353, 1976). Continuous subcutaneous infusion with 24 hours duration is used. The minipumps are either filled with different concentrations of test compounds dissolved in vehicle or with only vehicle solution and maintained in vehicle pre-warmed to 37° C. (approx. 1 h). The minipumps are implanted subcutaneously in the neck/back region under short acting anesthesia (metofane/enflurane). This surgical procedure lasts approximately 5 min. It takes about 3 h to reach steady state delivery of the compound.\nThe weight of the food pellets are measured at 5 p.m. and at 8 p.m. for two days before (baseline) and one day after the implantation of the osmotic minipumps. The weigh-in is performed with a computer assisted Mettler Toledo PR 5002 balance. Occasional spillage is corrected for. At the end of the study the animals are killed by neck dislocation and trunk blood sampled for later analysis of plasma drug concentrations.\nThe plasma sample proteins are precipitated with methanol, centrifuged and the supernatant is transferred to HPLC vials and injected into the liquid chromatography/mass spectrometric system. The mass spectrometer is set for electrospray positive ion mode and Multiple Reaction Monitoring. A linear regression analysis of the standards forced through the origin is used to calculate the concentrations of the unknown samples."}, "[2]": {"details": "In vitro binding at the human 5-HT6 receptor, [3H]-LSD as labeled ligand, read-out: Ki (nM) human 5-HT6"}}, "note": "Where a name gives a salt, the structure may show the parent alone. Read-outs that look alike come from different tables or passages of the source."}
{"compound": "Cl.O=S(=O)(c1ccccc1)c1ccc2nccc(N3CCNCC3)c2c1", "note": "[Example 1, 6-benzenesulfonyl-4-piperazin-1-yl-quinoline hydrochloride]", "values": [{"measurement": "Ki", "setting": "human 5-HT6 receptor; [2]", "value": 10, "unit": "nM"}, {"measurement": "% FI reduction", "setting": "Ob/ob mice", "value": 12, "unit": "%"}, {"measurement": "concentration at 24 h", "setting": "[1]", "value": 440, "unit": "nM"}]}
{"compound": "NCCc1c[nH]c2ccc(O)cc12", "note": "[Example 5-HT, 5-hydroxytryptamine, reference compound]", "values": [{"measurement": "Hill coefficient", "setting": "human 5-HT6 receptor; inter assay variability over three experiments", "value": "0.94 (SD 0.09)"}]}
{"compound": "CC(C)(C)c1ccc(S(=O)(=O)c2ccc3nccc(N4CCNCC4)c3c2)cc1.Cl", "note": "[Example 11, 6-[(4-tert-Butylphenyl)sulfonyl]-4-piperazin-1-ylquinoline hydrochloride]", "values": [{"measurement": "Ki", "setting": "human 5-HT6 receptor; [2]", "value": 6.5, "unit": "nM"}, {"measurement": "% FI reduction", "setting": "Ob/ob mice", "value": 47.1, "unit": "%"}, {"measurement": "concentration at 24 h", "setting": "[1]", "value": 20, "unit": "nM"}]}
{"compound": "Cc1ccc(C)c(S(=O)(=O)c2ccc3ccnc(N4CCNCC4)c3c2)c1", "note": "[Example 20, 7-(2,5-Dimethyl-benzenesulfonyl)-1-piperazin-1-yl-isoquinoline hydrochloride]", "values": [{"measurement": "Ki", "setting": "human 5-HT6 receptor; [2]", "value": 10.5, "unit": "nM"}]}
{"compound": "Cl.O=S(=O)(Nc1ccc(O[C@@H]2CCNC2)c2ccccc12)c1ccc(Cl)cc1", "note": "[Example 40, 4-Chloro-N-{4-[(3R)-pyrrolidin-3-yloxy]-1-naphthyl}benzenesulfonamide hydrochloride]", "values": [{"measurement": "Ki", "setting": "human 5-HT6 receptor; [2]", "value": 7.5, "unit": "nM"}, {"measurement": "% FI reduction", "setting": "Ob/ob mice", "value": 44, "unit": "%"}, {"measurement": "concentration at 24 h", "setting": "[1]", "value": 200, "unit": "nM"}]}
{"compound": "CN1CCN(c2nccc3sc(S(=O)(=O)Nc4ccccc4)cc23)CC1", "note": "[Example 43, 4-(4-Methylpiperazin-1-yl)-N-phenylthieno[3,2-c]pyridine-2-sulfonamide hydrochloride]", "values": [{"measurement": "Ki", "setting": "human 5-HT6 receptor; [2]", "value": 4.5, "unit": "nM"}]}
{"compound": "O=S(=O)(NCCc1cccs1)c1cc2c(N3CCNCC3)nccc2s1", "note": "[Example 68, 4-Piperazin-1-yl-thieno[3,2-c]pyridine-2-sulfonic acid (2-thiophen-2-yl-ethyl)-amide hydrochloride]", "values": [{"measurement": "Ki", "setting": "human 5-HT6 receptor; [2]", "value": 13, "unit": "nM"}]}
{"compound": "O=S(=O)(c1cc2c(N3CCCNCC3)nccc2s1)c1cccc2ccccc12", "note": "[Example 85, 4-(1,4-Diazepan-1-yl)-2-[1-naphthylsulfonyl)thieno[3,2-c]pyridine hydrochloride]", "values": [{"measurement": "Ki", "setting": "human 5-HT6 receptor; [2]", "value": 32, "unit": "nM"}]}
{"compound": "O=S(=O)(c1ccccc1)n1ccc2c(N3CCNCC3)nccc21", "note": "[Example 131, 1-(Phenylsulfonyl)-4-piperazin-1-yl-1H-pyrrolo[3,2-c]pyridine hydrochloride]", "values": [{"measurement": "Ki", "setting": "human 5-HT6 receptor", "value": 5, "unit": "nM"}]}
{"compound": "CN1C[C@@H](NS(=O)(=O)N(C)C)C[C@@H]2c3cccc4c3c(cn4C)C[C@H]21", "note": "[mesulergide, reference compound]", "values": [{"measurement": "Ki", "setting": "human 5-HT6 receptor; 3 nM [3H] LSD, 5-HT: over all average against two different membrane preparations, read-out: Ki value, inhibition of [3H] LSD binding (reference compounds, rank order of potency)", "value": 1970, "unit": "nM"}]}
